Assay results published in US20220160617A1, “COMPOSITIONS AND METHODS FOR IMPROVING SKIN HEALTH AND FOR THE TREATMENT AND PREVENTION OF DISEASES, DISORDERS AND CONDITIONS ASSOCIATED WITH PATHOGENIC MICROBES” (DermBiont, Inc., priority 2019, published 2022).
Where a SMILES comes first, the peptide text is derived from it.

System: fungal or bacterial pathogens
Format: cell-based
Conditions: not given

Compound	Concentration Range of Efficacy
O=NO [Nitrite]	0.1 to 1 mM

Same assay, conditions: components for enhancing function of human-derived Janthinobacterium lividum

Compound	Concentration Range of Efficacy
Chondroitin Sulfate C	1 to 5 mM
Pectin	1 to 5 mM
O=C(O)[C@H](O)[C@@H](O)C(=O)O [L-Tartaric acid]	1 to 5 mM
O=C[C@@H](O)[C@H](O[C@@H]1O[C@H](CO)[C@H](O)[C@H](O)[C@H]1O)[C@H](O)CO [3-0-β-D-Galactopyranosyl-D Arabinose]	1 to 5 mM
Laminarin	1 to 5 mM
O=C(O)[C@H]1OC(O)[C@H](O)[C@@H](O)[C@@H]1O (stereo partly drawn) [D-Glucoronic Acid]	2 to 20 mM
Glycogen	1 to 5 mM
CO[C@@H]1O[C@H](CO)[C@@H](O)[C@H](O)[C@H]1O [β-Methyl-D-Galactoside]	1 to 5 mM
COC1OCC(O)C(O)C1O [β-Methyl-D-Xyloside]	1 to 5 mM
OC[C@H]1O[C@@H]2O[C@H]3[C@H](O)[C@@H](O)[C@@H](O[C@H]4[C@H](O)[C@@H](O)[C@@H](O[C@H]5[C@H](O)[C@@H](O)[C@@H](O[C@H]6[C@H](O)[C@@H](O)[C@@H](O[C@H]7[C@H](O)[C@@H](O)[C@@H](O[C@H]8[C@H](O)[C@@H](O)[C@@H](O[C@H]9[C@H](O)[C@@H](O)[C@@H](O[C@H]1[C@H](O)[C@H]2O)O[C@@H]9CO)O[C@@H]8CO)O[C@@H]7CO)O[C@@H]6CO)O[C@@H]5CO)O[C@@H]4CO)O[C@@H]3CO [g-Cyclodextrin]	1 to 5 mM
NC(N)=O [Urea]	0.1 to 1 mM
OC[C@H]1O[C@H](OC[C@H]2OC(O)(CO)[C@@H](O)[C@@H]2O)[C@H](O)[C@@H](O)[C@@H]1O (some centres unmarked) [Palatinose]	1 to 5 mM
dextrin	1 to 5 mM
CO[C@H]1O[C@H](CO)[C@@H](O)[C@H](O)[C@H]1O [α-Methyl-D-Glucoside]	1 to 5 mM
OC[C@@H](O)[C@@H](O)CO [i-Erythritol]	1 to 5 mM
COC1OC(CO)C(O)C(O)C1O [α-Methyl-D-Mannoside]	1 to 5 mM
OC[C@H]1O[C@@H](O[C@H]2[C@H](O)[C@@H](O)[C@H](O)O[C@@H]2CO)[C@H](O)[C@@H](O)[C@@H]1O [D-Cellobiose]	2 to 20 mM
OC[C@H]1O[C@@H]2O[C@H]3[C@H](O)[C@@H](O)[C@@H](O[C@H]4[C@H](O)[C@@H](O)[C@@H](O[C@H]5[C@H](O)[C@@H](O)[C@@H](O[C@H]6[C@H](O)[C@@H](O)[C@@H](O[C@H]7[C@H](O)[C@@H](O)[C@@H](O[C@H]1[C@H](O)[C@H]2O)O[C@@H]7CO)O[C@@H]6CO)O[C@@H]5CO)O[C@@H]4CO)O[C@@H]3CO [α-Cyclodextrin]	1 to 5 mM
O=CC[C@H](O)[C@H](O)CO [2-Deoxy-DRibose]	1 to 5 mM
Mannan	1 to 5 mM
COC1OC(CO)C(O)C(O)C1O [α-Methyl-D-Galactoside]	2 to 20 mM
CC(O)CO (centres unmarked) [1,2-Propanediol]	2 to 20 mM
OC[C@H](O)C(O)[C@@H](O)CO [L-Arabitol]	1 to 5 mM
OC[C@@H](O)C(O)[C@H](O)CO [D-Arabitol]	1 to 5 mM
CC(O)C(N)=O (racemic) [D,L-Lactamide]	0.1 to 1 mM
C[C@H](N)C(=O)N[C@@H](CCC(=O)O)C(=O)O [Ala-Glu] (H-Ala-Glu-OH)	0.1 to 1 mM
OC[C@H]1O[C@@](CO)(O[C@H]2O[C@H](CO)[C@@H](O)[C@H](O)[C@H]2O)[C@@H](O[C@H]2O[C@H](CO)[C@@H](O)[C@H](O)[C@H]2O)[C@@H]1O [D-Melezitose]	1 to 5 mM
Maltotriose	2 to 20 mM
